# In patent US20220280471A1, “Treatment of Affective Disorders” (Vanda Pharmaceuticals Inc., priority 2017, published 2022):
# Tested on: patients with MDD
# Test: Double-masked, placebo-controlled clinical study of tasimelteon in patients with MDD (NCT01428661), Hamilton Depression Scale
# Type: in vivo, human
# Method: A large clinical study was conducted to evaluate the effects of tasimelteon on depressive symptoms in patients with MDD. Details of the study design are set out in study number NCT01428661, available at clinicaltrials.gov. Aspects of the study relevant to the claimed invention are described below.
# A total of 507 patients with MDD were enrolled in a double-masked, placebo-controlled study randomized on either tasimelteon 20 mg (n=254) or placebo (n=253). Patients were assessed at baseline and weekly for eight weeks on a number of depression scales, including the Hamilton Depression Scale (HAMD).
structure (smiles),measurement,setting,value
"CCC(=O)NC[C@@H]1C[C@H]1c1cccc2c1CCO2 (relative stereo) [Tasimelteon, trans-N-[[2-(2,3-dihydrobenzofuran-4-yl)cycloprop-1yl]methyl] propanamide]",improvement on the HAMD scale,"African-American MDD patients, at eight weeks, tasimelteon 20 mg (n=78), p=0.018 vs placebo",9.9 points
same,"responder analysis (improvement in the HAMD scale of 50% or greater from baseline), patients showing improvement","African-American MDD patients, at eight weeks, tasimelteon 20 mg, p=0.0019 vs placebo",59%
same,improvement from baseline on the HAMD scale,"all randomized MDD patients, tasimelteon 20 mg (n=254), p=0.57 vs placebo",8.1 points
